Data on eight compounds can be found in patent US20080051429A1, “USE OF 4-AMINO-PIPERIDINES FOR TREATING SLEEP DISORDERS” (priority 2006, published 2008).

One experiment deals with T1, 5-HT2A receptor (Homo sapiens, UniProt P28223).
T1 construct: expressed in transfected cells; host or cells: NIH3T3 cells, pSI expression vector
Nature of the experiment: R-SAT functional receptor assay. It is filed as cell-based.

The next experiment concerns the target T2, alpha1c/A (Homo sapiens, UniProt P35348).
T2 construct: expressed in transfected cells
T2 sequence (P35348 1-466): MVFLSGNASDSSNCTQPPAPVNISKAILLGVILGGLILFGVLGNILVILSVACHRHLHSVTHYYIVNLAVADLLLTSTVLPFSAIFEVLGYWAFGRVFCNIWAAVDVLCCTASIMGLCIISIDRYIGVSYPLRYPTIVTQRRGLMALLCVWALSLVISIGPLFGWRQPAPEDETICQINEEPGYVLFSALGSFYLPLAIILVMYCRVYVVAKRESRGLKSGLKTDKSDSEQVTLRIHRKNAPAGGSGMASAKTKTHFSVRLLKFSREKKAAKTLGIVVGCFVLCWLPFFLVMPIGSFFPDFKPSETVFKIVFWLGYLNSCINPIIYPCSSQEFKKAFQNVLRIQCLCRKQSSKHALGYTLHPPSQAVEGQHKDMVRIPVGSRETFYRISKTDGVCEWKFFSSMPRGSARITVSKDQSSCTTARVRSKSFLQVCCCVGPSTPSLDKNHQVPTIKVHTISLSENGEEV
Nature of the experiment: R-SAT selectivity profile. It is filed as cell-based. As to the method: (§1) The functional receptor assay, Receptor Selection and Amplification Technology (R-SAT), was used (with minor modifications from that previously described U.S. Pat. No. 5,707,798) to screen compounds for efficacy at the 5-HT2A receptor. Briefly, NIH3T3 cells were grown in 96 well tissue culture plates to 70-80% confluence. Cells were transfected for 12-16 hours with plasmid DNAs using superfect (Qiagen Inc.) as per manufacture's protocols. R-SAT's were generally performed with 50 ng/well of receptor and 20 ng/well of Beta-galactosidase plasmid DNA. All receptor and G-protein constructs used were in the pSI mammalian expression vector (Promega Inc) as described in U.S. Pat. No. 5,707,798. The 5HT2A receptor gene was amplified by nested PCR from brain cDNA using the oligodeoxynucleotides based on the published sequence (see Saltzman et. al. Biochem. Biophys. Res. Comm. 181:1469-78 (1991)). Large-scale transfections, cells were transfected for 12-16 hours, then trypsinized and frozen in DMSO. Frozen cells were later thawed, plated at 10,000-40,000 cells per well of a 96 well plate that contained drug. With both methods, cells were then grown in a humidified atmosphere with 5% ambient CO2 for five days. Media was then removed from the plates and marker gene activity was measured by the addition of the beta-galactosidase substrate ONPG (in PBS with 5% NP-40). The resulting colorimetric reaction was measured in a spectrophotometric plate reader (Titertek Inc.)at […]. All data were analyzed using the computer program XLFit (IDBSm). Efficacy is the percent maximal repression compared to repression by a control compound (ritanserin in the case of 5HT2A). pIC50 is the negative of the log(IC50), where IC50 is the calculated concentration in Molar that produces 50% maximal repression.
(§2) R-SAT assays (as described in Example 42) were carried out with cells transfected with receptors (listed below) to determine the receptor selectivity profile for compound 26HCH16D. 5HT2A inverse agonist data (IC50 nM; % efficacy) were derived from detailed dose response curves (7 points in triplicate).

The target in another experiment is T3, alpha1a/D (Rattus norvegicus, UniProt P23944).
T3 construct: expressed in transfected cells
T3 sequence (P23944 whole entry): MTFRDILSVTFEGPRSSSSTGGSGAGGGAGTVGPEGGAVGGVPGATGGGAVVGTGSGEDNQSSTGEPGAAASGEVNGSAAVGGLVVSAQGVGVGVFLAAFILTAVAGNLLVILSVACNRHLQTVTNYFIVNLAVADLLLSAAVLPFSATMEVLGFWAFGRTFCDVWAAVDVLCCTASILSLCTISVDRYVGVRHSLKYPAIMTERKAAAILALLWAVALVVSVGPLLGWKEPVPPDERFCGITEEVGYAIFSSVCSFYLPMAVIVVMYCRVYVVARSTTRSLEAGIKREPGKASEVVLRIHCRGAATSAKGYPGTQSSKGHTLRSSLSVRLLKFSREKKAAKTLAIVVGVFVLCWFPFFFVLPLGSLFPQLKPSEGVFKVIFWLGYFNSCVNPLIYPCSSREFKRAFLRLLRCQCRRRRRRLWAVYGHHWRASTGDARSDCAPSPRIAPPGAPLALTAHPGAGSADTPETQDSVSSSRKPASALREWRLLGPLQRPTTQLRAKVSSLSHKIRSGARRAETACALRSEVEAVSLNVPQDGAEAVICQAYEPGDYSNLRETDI
Briefly: R-SAT selectivity profile. It is filed as cell-based. The method, then: as §1, §2

Experiment [1] deals with T4, 5HT1A (Rattus norvegicus, UniProt P19327).
T4 construct: expressed in transfected cells
T4 sequence (P19327 whole entry): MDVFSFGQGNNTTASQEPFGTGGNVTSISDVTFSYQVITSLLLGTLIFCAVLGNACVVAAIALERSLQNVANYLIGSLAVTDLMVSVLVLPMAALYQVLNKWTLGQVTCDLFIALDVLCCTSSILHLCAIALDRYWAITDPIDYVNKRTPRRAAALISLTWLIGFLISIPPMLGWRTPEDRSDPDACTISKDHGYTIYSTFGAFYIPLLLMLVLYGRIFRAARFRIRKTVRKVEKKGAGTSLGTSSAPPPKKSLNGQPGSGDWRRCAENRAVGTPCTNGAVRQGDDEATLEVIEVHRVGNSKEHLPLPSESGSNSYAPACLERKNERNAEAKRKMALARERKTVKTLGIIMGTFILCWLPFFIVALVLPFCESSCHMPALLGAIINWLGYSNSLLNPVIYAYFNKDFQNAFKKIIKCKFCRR
Briefly: R-SAT selectivity profile. It is filed as cell-based. The note with it: antagonist. As to the method: as §1, §2

The target of another experiment is T5, alpha1b/B (Mesocricetus auratus, UniProt P18841).
T5 construct: expressed in transfected cells
T5 sequence (P18841 whole entry): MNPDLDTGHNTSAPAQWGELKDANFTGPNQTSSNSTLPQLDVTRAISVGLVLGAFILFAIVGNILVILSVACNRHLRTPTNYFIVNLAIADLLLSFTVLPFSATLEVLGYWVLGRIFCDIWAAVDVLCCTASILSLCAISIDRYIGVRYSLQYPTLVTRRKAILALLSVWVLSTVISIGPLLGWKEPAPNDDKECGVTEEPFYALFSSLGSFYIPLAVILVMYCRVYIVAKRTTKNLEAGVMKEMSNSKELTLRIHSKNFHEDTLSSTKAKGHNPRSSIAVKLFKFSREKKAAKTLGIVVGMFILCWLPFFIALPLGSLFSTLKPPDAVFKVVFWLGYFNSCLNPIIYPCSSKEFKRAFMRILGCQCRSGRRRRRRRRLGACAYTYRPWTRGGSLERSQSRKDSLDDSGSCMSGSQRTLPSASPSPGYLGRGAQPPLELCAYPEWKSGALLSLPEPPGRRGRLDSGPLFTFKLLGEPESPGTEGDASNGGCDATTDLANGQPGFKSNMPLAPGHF
Briefly: R-SAT selectivity profile. It is filed as cell-based, hamster. The method, then:
as §1, with “Frozen cells were later thawed, plated at 10,000-40,000 cells per well of a 96 well plate that contained drug. With both methods, cells were then grown in a humidified atmosphere with 5% ambient CO2 for five days.” left out, “Efficacy is the percent maximal repression compared to repression by a control compound (ritanserin in the case of 5HT2A). pIC50 is the negative of the log(IC50), where IC50 is the calculated concentration in Molar that produces 50% maximal repression.” left out

Another experiment addresses 5HT2B (Homo sapiens, UniProt P41595). Nature of the experiment: R-SAT selectivity profile. It counts as cell-based. Also noted: expressed in transfected cells. The method, then:
as §1, §2

The target in a further experiment is T6, 5HT2C (Homo sapiens, UniProt P28335).
T6 sequence (P28335 33-458): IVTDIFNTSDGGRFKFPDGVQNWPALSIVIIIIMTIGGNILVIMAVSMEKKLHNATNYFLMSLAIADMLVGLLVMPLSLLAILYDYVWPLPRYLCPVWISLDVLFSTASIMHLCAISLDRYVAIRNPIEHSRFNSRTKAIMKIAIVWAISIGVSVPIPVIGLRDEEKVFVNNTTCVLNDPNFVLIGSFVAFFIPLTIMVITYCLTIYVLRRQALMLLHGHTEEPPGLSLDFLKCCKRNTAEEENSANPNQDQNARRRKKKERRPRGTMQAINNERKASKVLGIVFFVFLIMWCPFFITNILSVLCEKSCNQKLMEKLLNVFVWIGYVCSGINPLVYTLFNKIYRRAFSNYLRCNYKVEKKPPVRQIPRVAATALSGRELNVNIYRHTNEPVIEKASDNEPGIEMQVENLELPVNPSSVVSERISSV
Nature of the experiment: R-SAT selectivity profile. It counts as cell-based. Also noted: expressed in transfected cells. The method, then: as §1, §2

Experiment [2] has as its target T7, 5HT1A (Homo sapiens, UniProt P08908).
T7 sequence (P08908 1-422): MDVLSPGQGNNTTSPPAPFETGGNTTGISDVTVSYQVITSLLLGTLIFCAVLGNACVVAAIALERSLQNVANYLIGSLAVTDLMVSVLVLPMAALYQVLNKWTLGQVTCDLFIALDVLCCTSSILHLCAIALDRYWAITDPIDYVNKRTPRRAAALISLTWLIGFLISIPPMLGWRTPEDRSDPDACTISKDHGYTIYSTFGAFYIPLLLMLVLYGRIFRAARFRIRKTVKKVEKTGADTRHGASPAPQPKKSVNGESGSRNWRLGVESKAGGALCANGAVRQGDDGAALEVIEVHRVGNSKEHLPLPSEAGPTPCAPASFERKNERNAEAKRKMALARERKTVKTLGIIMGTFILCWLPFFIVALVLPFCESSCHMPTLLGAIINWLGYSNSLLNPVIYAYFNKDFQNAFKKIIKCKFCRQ
Nature of the experiment: R-SAT selectivity profile. As to conditions: agonist. Also on record: expressed in transfected cells. It is filed as cell-based. The method, then: as §1, §2

The next experiment concerns the target H1 (Homo sapiens, UniProt P35367). Nature of the experiment: R-SAT selectivity profile. Also on record: expressed in transfected cells. It counts as cell-based. As to the method:
as §1, §2

A further experiment concerns the target D2 (Homo sapiens, UniProt P14416). Briefly: R-SAT selectivity profile. Also on record: expressed in transfected cells. It is filed as cell-based. As to the method:
as §1, §2

For another experiment, the target named is 5HT1E (Homo sapiens, UniProt P28566). Nature of the experiment: R-SAT selectivity profile. The note with it: agonist. It counts as cell-based. Also noted: expressed in transfected cells. As to the method:
as §1, §2

The mark [3] stands for this setting: Table 5, read-out: 5HT2A pIC50 (converted).

Where a name gives a salt, the structure may show the parent alone. Read-outs that look alike come from different tables or passages of the source.

T1 sequence (P28223 whole entry): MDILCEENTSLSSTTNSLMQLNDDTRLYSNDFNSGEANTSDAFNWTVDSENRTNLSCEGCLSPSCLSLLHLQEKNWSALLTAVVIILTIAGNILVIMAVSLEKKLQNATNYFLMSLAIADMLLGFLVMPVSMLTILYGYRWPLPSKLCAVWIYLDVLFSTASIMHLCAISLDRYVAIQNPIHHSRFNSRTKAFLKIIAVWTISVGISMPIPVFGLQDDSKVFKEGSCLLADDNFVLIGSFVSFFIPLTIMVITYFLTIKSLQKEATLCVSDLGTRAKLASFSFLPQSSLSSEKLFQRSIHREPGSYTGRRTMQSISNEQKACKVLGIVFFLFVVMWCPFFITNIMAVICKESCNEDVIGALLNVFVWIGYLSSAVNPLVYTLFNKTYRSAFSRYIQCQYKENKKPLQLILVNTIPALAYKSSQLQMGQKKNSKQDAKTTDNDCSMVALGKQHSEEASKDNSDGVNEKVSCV
Sequence of H1 (P35367 whole entry): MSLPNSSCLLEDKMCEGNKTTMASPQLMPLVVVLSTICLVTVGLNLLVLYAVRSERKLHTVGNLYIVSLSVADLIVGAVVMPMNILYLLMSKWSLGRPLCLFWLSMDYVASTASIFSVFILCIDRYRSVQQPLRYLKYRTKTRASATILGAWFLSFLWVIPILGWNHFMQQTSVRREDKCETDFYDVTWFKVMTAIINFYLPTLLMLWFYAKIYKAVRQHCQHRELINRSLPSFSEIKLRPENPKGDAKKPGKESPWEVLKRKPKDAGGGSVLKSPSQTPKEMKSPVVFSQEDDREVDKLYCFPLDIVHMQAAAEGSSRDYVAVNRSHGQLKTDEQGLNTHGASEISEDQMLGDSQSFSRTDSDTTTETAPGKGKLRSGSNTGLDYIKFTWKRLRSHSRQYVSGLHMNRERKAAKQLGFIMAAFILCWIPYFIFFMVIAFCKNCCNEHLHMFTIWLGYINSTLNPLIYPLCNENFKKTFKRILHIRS
Sequence of D2 (P14416 whole entry): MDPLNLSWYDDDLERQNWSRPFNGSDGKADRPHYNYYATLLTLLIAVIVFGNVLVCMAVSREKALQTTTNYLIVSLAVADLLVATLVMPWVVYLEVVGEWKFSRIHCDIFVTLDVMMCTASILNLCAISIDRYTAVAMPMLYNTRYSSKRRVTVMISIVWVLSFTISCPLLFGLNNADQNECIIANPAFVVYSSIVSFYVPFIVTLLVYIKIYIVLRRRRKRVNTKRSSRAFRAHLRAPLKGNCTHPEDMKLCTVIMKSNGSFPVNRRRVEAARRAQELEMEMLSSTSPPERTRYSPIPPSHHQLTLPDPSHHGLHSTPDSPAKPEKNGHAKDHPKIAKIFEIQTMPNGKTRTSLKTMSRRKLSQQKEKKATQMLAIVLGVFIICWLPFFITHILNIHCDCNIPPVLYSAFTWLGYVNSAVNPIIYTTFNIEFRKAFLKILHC
Sequence of 5HT2B (P41595 whole entry): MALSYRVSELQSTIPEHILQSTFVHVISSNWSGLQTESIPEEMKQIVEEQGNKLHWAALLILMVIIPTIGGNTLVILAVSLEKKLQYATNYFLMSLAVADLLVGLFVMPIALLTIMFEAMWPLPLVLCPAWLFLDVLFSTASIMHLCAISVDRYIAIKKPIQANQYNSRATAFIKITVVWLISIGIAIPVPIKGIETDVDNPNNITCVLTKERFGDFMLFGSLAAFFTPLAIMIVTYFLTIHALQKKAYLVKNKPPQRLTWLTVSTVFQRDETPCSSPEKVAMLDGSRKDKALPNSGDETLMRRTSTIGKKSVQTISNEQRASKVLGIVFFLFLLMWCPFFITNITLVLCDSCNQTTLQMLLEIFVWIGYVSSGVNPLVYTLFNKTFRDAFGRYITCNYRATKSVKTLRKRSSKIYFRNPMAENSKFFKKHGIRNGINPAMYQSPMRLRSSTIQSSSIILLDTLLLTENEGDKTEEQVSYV
Sequence of 5HT1E (P28566 whole entry): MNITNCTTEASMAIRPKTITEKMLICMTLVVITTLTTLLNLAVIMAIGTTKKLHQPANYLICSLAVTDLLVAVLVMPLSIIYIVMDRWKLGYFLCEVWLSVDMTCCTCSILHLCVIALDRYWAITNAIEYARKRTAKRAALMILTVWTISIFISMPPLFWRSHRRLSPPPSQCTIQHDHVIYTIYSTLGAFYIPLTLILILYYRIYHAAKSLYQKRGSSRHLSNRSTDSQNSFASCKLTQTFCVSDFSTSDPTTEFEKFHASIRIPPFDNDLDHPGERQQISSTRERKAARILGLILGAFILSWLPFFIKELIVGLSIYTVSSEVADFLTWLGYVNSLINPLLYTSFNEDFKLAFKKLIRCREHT

`Cc1ccc(CN(C(=O)NCc2ccccc2)C2CCN(Cc3ccccc3)CC2)cc1` [Example 26HCH16D, N-((4-Methylphenyl)methyl)-N-(1-(phenylmethyl)piperidin-4-yl)-N′-phenylmethylcarbamide hydrochloride] registered an IC50 on 5-HT2A receptor (IC50, Inverse Agonist, 7 points in triplicate) of 0.9 nM. The “selectivity as 5-HT2A inverse agonist” value on 5-HT2A receptor (in words) is on record as “highly selective”. Moreover, the Emax on 5-HT2A receptor (read-out: % efficacy) turned out to be 79%. Moreover, the “initial concentration at which at least 30% efficacy observed” value at alpha1c/A (Antagonist, 4 dose profiling) turned out to be 3000 nM; on 5HT2B (Antagonist, 4 dose profiling), 3000 nM; on 5HT2C (Inverse Agonist, 4 dose profiling), 3000 nM; on H1 (Antagonist, 4 dose profiling), 3000 nM; at D2 (Antagonist, 4 dose profiling), 3000 nM. Besides, the Efficacy result on alpha1c/A (agonist) is recorded as “nr (nr=activity less than 30% at all doses tested (3, 30, 300, 3000 nM), therefore EC50/IC50 greater than 3000 nM)”; at alpha1a/D (agonist), “nr (nr=activity less than 30% at all doses tested (3, 30, 300, 3000 nM), therefore EC50/IC50 greater than 3000 nM)”; at alpha1a/D (antagonist), “nr (nr=activity less than 30% at all doses tested (3, 30, 300, 3000 nM), therefore EC50/IC50 greater than 3000 nM)”; at 5HT1A [1], “nr (nr=activity less than 30% at all doses tested (3, 30, 300, 3000 nM), therefore EC50/IC50 greater than 3000 nM)”; on alpha1b/B (agonist), “nr (nr=activity less than 30% at all doses tested (3, 30, 300, 3000 nM), therefore EC50/IC50 greater than 3000 nM)”; on alpha1b/B (antagonist), “nr (nr=activity less than 30% at all doses tested (3, 30, 300, 3000 nM), therefore EC50/IC50 greater than 3000 nM)”. Further, the Efficacy result on 5HT1A [2] is on record as “nr (nr=activity less than 30% at all doses tested (3, 30, 300, 3000 nM), therefore EC50/IC50 greater than 3000 nM)”; at H1 (agonist), “nr (nr=activity less than 30% at all doses tested (3, 30, 300, 3000 nM), therefore EC50/IC50 greater than 3000 nM)”; on D2 (agonist), “nr (nr=activity less than 30% at all doses tested (3, 30, 300, 3000 nM), therefore EC50/IC50 greater than 3000 nM)”; on 5HT1E, “nr (nr=activity less than 30% at all doses tested (3, 30, 300, 3000 nM), therefore EC50/IC50 greater than 3000 nM)”. For the same compound, the actual efficacy figure at alpha1c/A (antagonist) was 46%; at 5HT2B (antagonist) it was 60%; on 5HT2C (inverse agonist) it was 79%; at H1 (antagonist), 30%; on D2, 73%.

As for `CC(C)COc1ccc(CC(=O)N(Cc2ccc(F)cc2)C2CCN(CCCN3CC(C)OC(C)C3)CC2)cc1` (stereo not shown) [Example 103NLS69-A, N-{1-[3-(2,6-Dimethylmorpholin-4-yl)propyl]piperidin-4-yl}-N-(4-fluorobenzyl)-2-(4-isobutoxyphenyl)acetamide, dioxalate], on 5-HT2A receptor (120 h, read-out: 5HT2A % INH), the Emax came out at 96%. In addition, at 5-HT2A receptor (setting [3]), the IC50 was 2 nM.

The compound `CCCOc1ccc(CC(=O)N(CCc2ccc(F)cc2)C2CCN(CCCN3C(=O)OC[C@@H]3C(C)C)CC2)cc1` [Example 117NLS03-B, N-[2-(4-Fluorophenyl)ethyl]-N-{1-[3-(4-(S)-isopropyl-2-oxo-oxazolidin-3-yl)propyl]piperidin-4-yl}-2-(4-propoxyphenyl)acetamide, oxalate] had an IC50 on 5-HT2A receptor (5HT2A pIC50, Table 5) of 3.98 nM. For the same compound, on 5-HT2A receptor (120 h, read-out: 5HT2A % INH), the Emax is 85%.

In the case of `CC(C)COc1ccc(CNC(=O)N(Cc2ccc(F)cc2)C2CCN(CCC3OCCCO3)CC2)cc1` [Example 117NLS25, N-{1-[2-(1,3-Dioxan-2-yl)ethyl]piperidin-4-yl}-N-(4-fluorobenzyl)-N′-(4-isobutoxybenzyl)carbamide, tartrate], the Emax on 5-HT2A receptor (120 h, read-out: 5HT2A % INH) stood at 94%. At 5-HT2A receptor (setting [3]), the IC50 was 1.26 nM.

Compound `CC[C@H]1COC(=O)N1CCCN1CCC(N(Cc2ccc(F)cc2)C(=O)Cc2ccc(OCC(C)C)cc2)CC1` [Example 118AF16-80, N-(4-Fluorobenzyl)-2-(4-isobutoxyphenyl)-N-{1-[3-((S)-4-ethyl-2-oxo-oxazolidin-3-yl)-propyl]piperidin-4-yl}acetamide, oxalate] showed an IC50 against 5-HT2A receptor (5HT2A pIC50, Table 5) of 0.794 nM. In addition, at 5-HT2A receptor (120 h, read-out: 5HT2A % INH), the Emax is 103%.

With `CC(C)COc1ccc(CC(=O)N(Cc2ccc(F)cc2)C2CCN(CCC3OC(C)CC(C)O3)CC2)cc1` (stereo not shown) [Example 118AF37-88, N-{1-[2-(4,6-Dimethyl-1,3-dioxan-2-yl)ethyl]piperidin-4-yl}-N-(4-fluorobenzyl)-2-(4-isobutoxyphenyl)acetamide, oxalate], on 5-HT2A receptor (120 h, read-out: 5HT2A % INH), the Emax was determined as 105%. Also, the IC50 at 5-HT2A receptor (setting [3]) is 0.631 nM.

Turning to `O=C(Cc1ccc2occc2c1)N(Cc1ccc(F)cc1)C1CCN(CCC2OCCCO2)CC1` [Example 128NLS22-A, 2-Benzofuran-5-yl-N-{1-[2-(1,3-dioxan-2-yl)ethyl]piperidin-4-yl}-N-(4-fluorobenzyl)acetamide, tartrate], the Emax at 5-HT2A receptor (120 h, read-out: 5HT2A % INH) was 98%. Besides, the IC50 at 5-HT2A receptor (setting [3]) is 3.16 nM.

For the compound “N-(2-Phenylethyl)-N-(piperidin-4-yl)-4-methoxyphenylmethylacetamide [Example 26HCH80-2]”, the “pIC50 (average)” value on 5-HT2A receptor (inverse agonist) was found to be 7.78. The “Efficacy (average)” value at 5-HT2A receptor (percent maximal repression compared to ritanserin) amounted to 89.
